According to patent publication US20260206755A1, “COMPOUNDS AND COMPOSITIONS HAVING KNOCK-DOWN OR BLOOD FEED INHIBITION ACTIVITY AGAINST INSECT PESTS” (priority 2017, published 2026):

Each compound was assayed on Anopheles stephensi (assay: Anopheles stephensi treated well plate contact test: knockdown and mortality). Conditions: Anopheles stephensi; test compound 0.2 ppm, without TFNA-AM, after 24 hours; read-out: mortality % 24, without TFNA-AM.
Type: in vivo
Protocol: Examples Anopheles stephensi (Indian Malaria Mosquito)
The individual wells of twelve (12) well tissue culture plates were treated with 200 μl of an ethanol solution containing a test compound of Table 1 or Table 2 at a defined concentration and repeated with also 200 μl of an ethanol solution containing in addition 2 ppm TFNA-AM. Once the deposits were dry, five non-blood fed adult female Anopheles stephensi (between two to five day old) were added to each well, and sustained with a 10% sucrose solution in a cotton wool plug. Assessment of the knockdown after 1 hour, and mortality after 24 and 48 hours was carried out.
In case of multiple tests, the mean value is reported.

SMILES | mortality at 0.2 ppm [%]
CO/C=C(/C(=O)OC)c1ccccc1Oc1cc(C(F)(F)F)ccn1 [Compound 49] | 0
CO/C=C(/C(=O)OC)c1ccccc1Oc1ncc(C(F)(F)F)s1 [Compound 54] | 0

Same assay, conditions: Anopheles stephensi; test compound 0.2 ppm, without TFNA-AM, after 48 hours; read-out: mortality % 48, without TFNA-AM

SMILES | mortality at 0.2 ppm [%]
CO/C=C(/C(=O)OC)c1ccccc1Oc1cc(C(F)(F)F)ccn1 [Compound 49] | 0
CO/C=C(/C(=O)OC)c1ccccc1Oc1ncc(C(F)(F)F)s1 [Compound 54] | 0

Same assay, conditions: Anopheles stephensi; test compound 0.2 ppm, without TFNA-AM, knockdown after 1 hour; read-out: Knock Down, without TFNA-AM

SMILES | pest or weed control at 0.2 ppm [%]
CO/C=C(/C(=O)OC)c1ccccc1Oc1cc(C(F)(F)F)ccn1 [Compound 49] | 0
CO/C=C(/C(=O)OC)c1ccccc1Oc1ncc(C(F)(F)F)s1 [Compound 54] | 0

Same assay, conditions: Anopheles stephensi; test compound 2 ppm, without TFNA-AM, after 24 hours; read-out: mortality % 24, without TFNA-AM

SMILES | mortality at 2 ppm [%]
CO/C=C(/C(=O)OC)c1ccccc1Oc1cc(C(F)(F)F)ccn1 [Compound 49] | 60
CO/C=C(/C(=O)OC)c1ccccc1Oc1ncc(C(F)(F)F)s1 [Compound 54] | 60

Same assay, conditions: Anopheles stephensi; test compound 2 ppm, without TFNA-AM, after 48 hours; read-out: mortality % 48, without TFNA-AM

SMILES | mortality at 2 ppm [%]
CO/C=C(/C(=O)OC)c1ccccc1Oc1cc(C(F)(F)F)ccn1 [Compound 49] | 60
CO/C=C(/C(=O)OC)c1ccccc1Oc1ncc(C(F)(F)F)s1 [Compound 54] | 40

Same assay, conditions: Anopheles stephensi; test compound 2 ppm, without TFNA-AM, knockdown after 1 hour; read-out: Knock Down, without TFNA-AM

SMILES | pest or weed control at 2 ppm [%]
CO/C=C(/C(=O)OC)c1ccccc1Oc1cc(C(F)(F)F)ccn1 [Compound 49] | 0
CO/C=C(/C(=O)OC)c1ccccc1Oc1ncc(C(F)(F)F)s1 [Compound 54] | 0

Same assay, conditions: Anopheles stephensi; test compound 20 ppm, without TFNA-AM, after 24 hours; read-out: mortality % 24, without TFNA-AM

SMILES | mortality at 20 ppm [%]
CO/C=C(/C(=O)OC)c1ccccc1Oc1cc(C(F)(F)F)ccn1 [Compound 49] | 100
CO/C=C(/C(=O)OC)c1ccccc1Oc1ncc(C(F)(F)F)s1 [Compound 54] | 100

Same assay, conditions: Anopheles stephensi; test compound 20 ppm, without TFNA-AM, after 48 hours; read-out: mortality % 48, without TFNA-AM

SMILES | mortality at 20 ppm [%]
CO/C=C(/C(=O)OC)c1ccccc1Oc1cc(C(F)(F)F)ccn1 [Compound 49] | 100
CO/C=C(/C(=O)OC)c1ccccc1Oc1ncc(C(F)(F)F)s1 [Compound 54] | 100

Same assay, conditions: Anopheles stephensi; test compound 20 ppm, without TFNA-AM, knockdown after 1 hour; read-out: Knock Down, without TFNA-AM

SMILES | pest or weed control at 20 ppm [%]
CO/C=C(/C(=O)OC)c1ccccc1Oc1cc(C(F)(F)F)ccn1 [Compound 49] | 50
CO/C=C(/C(=O)OC)c1ccccc1Oc1ncc(C(F)(F)F)s1 [Compound 54] | 100

Same assay, conditions: Anopheles stephensi; test compound 200 ppm, without TFNA-AM, after 24 hours; read-out: mortality % 24, without TFNA-AM

SMILES | mortality at 200 ppm [%]
CO/C=C(/C(=O)OC)c1ccccc1Oc1cc(C(F)(F)F)ccn1 [Compound 49] | 100
CO/C=C(/C(=O)OC)c1ccccc1Oc1ncc(C(F)(F)F)s1 [Compound 54] | 100

Same assay, conditions: Anopheles stephensi; test compound 200 ppm, without TFNA-AM, after 48 hours; read-out: mortality % 48, without TFNA-AM

SMILES | mortality at 200 ppm [%]
CO/C=C(/C(=O)OC)c1ccccc1Oc1cc(C(F)(F)F)ccn1 [Compound 49] | 100
CO/C=C(/C(=O)OC)c1ccccc1Oc1ncc(C(F)(F)F)s1 [Compound 54] | 100

Same assay, conditions: Anopheles stephensi; test compound 200 ppm, without TFNA-AM, knockdown after 1 hour, adult females; read-out: Knock Down, without TFNA-AM

SMILES | pest or weed control at 200 ppm [%]
CO/C=C(/C(=O)OC)c1ccccc1Oc1cc(C(F)(F)F)ccn1 [Compound 49] | 50
CO/C=C(/C(=O)OC)c1ccccc1Oc1ncc(C(F)(F)F)s1 [Compound 54] | 100

Same assay, conditions: test compound 0.2 ppm plus 2 ppm TFNA-AM, after 24 hours

SMILES | mortality % 24, with TFNA-AM [%]
CO/C=C(/C(=O)OC)c1ccccc1Oc1cc(C(F)(F)F)ccn1 [Compound 49] | 50

Same assay, conditions: test compound 0.2 ppm plus 2 ppm TFNA-AM, after 48 hours

SMILES | mortality % 48, with TFNA-AM [%]
CO/C=C(/C(=O)OC)c1ccccc1Oc1cc(C(F)(F)F)ccn1 [Compound 49] | 10
CO/C=C(/C(=O)OC)c1ccccc1Oc1ncc(C(F)(F)F)s1 [Compound 54] | 10

Same assay, conditions: test compound 0.2 ppm plus 2 ppm TFNA-AM, knockdown after 1 hour

SMILES | Knock Down, with TFNA-AM [%]
CO/C=C(/C(=O)OC)c1ccccc1Oc1cc(C(F)(F)F)ccn1 [Compound 49] | 90
CO/C=C(/C(=O)OC)c1ccccc1Oc1ncc(C(F)(F)F)s1 [Compound 54] | 90

Same assay, conditions: test compound 2 ppm plus 2 ppm TFNA-AM, after 24 hours

SMILES | mortality % 24, with TFNA-AM [%]
CO/C=C(/C(=O)OC)c1ccccc1Oc1cc(C(F)(F)F)ccn1 [Compound 49] | 90
CO/C=C(/C(=O)OC)c1ccccc1Oc1ncc(C(F)(F)F)s1 [Compound 54] | 100

Same assay, conditions: test compound 2 ppm plus 2 ppm TFNA-AM, after 48 hours

SMILES | mortality % 48, with TFNA-AM [%]
CO/C=C(/C(=O)OC)c1ccccc1Oc1cc(C(F)(F)F)ccn1 [Compound 49] | 90
CO/C=C(/C(=O)OC)c1ccccc1Oc1ncc(C(F)(F)F)s1 [Compound 54] | 100

Same assay, conditions: test compound 2 ppm plus 2 ppm TFNA-AM, knockdown after 1 hour

SMILES | Knock Down, with TFNA-AM [%]
CO/C=C(/C(=O)OC)c1ccccc1Oc1cc(C(F)(F)F)ccn1 [Compound 49] | 100
CO/C=C(/C(=O)OC)c1ccccc1Oc1ncc(C(F)(F)F)s1 [Compound 54] | 100

Same assay, conditions: test compound 20 ppm plus 2 ppm TFNA-AM, after 24 hours

SMILES | mortality % 24, with TFNA-AM [%]
CO/C=C(/C(=O)OC)c1ccccc1Oc1cc(C(F)(F)F)ccn1 [Compound 49] | 100
CO/C=C(/C(=O)OC)c1ccccc1Oc1ncc(C(F)(F)F)s1 [Compound 54] | 100

Same assay, conditions: test compound 20 ppm plus 2 ppm TFNA-AM, after 48 hours

SMILES | mortality % 48, with TFNA-AM [%]
CO/C=C(/C(=O)OC)c1ccccc1Oc1cc(C(F)(F)F)ccn1 [Compound 49] | 90
CO/C=C(/C(=O)OC)c1ccccc1Oc1ncc(C(F)(F)F)s1 [Compound 54] | 100

Same assay, conditions: test compound 20 ppm plus 2 ppm TFNA-AM, knockdown after 1 hour

SMILES | Knock Down, with TFNA-AM [%]
CO/C=C(/C(=O)OC)c1ccccc1Oc1cc(C(F)(F)F)ccn1 [Compound 49] | 100
CO/C=C(/C(=O)OC)c1ccccc1Oc1ncc(C(F)(F)F)s1 [Compound 54] | 100

Same assay, conditions: test compound 200 ppm plus 2 ppm TFNA-AM, after 24 hours

SMILES | mortality % 24, with TFNA-AM [%]
CO/C=C(/C(=O)OC)c1ccccc1Oc1cc(C(F)(F)F)ccn1 [Compound 49] | 100
CO/C=C(/C(=O)OC)c1ccccc1Oc1ncc(C(F)(F)F)s1 [Compound 54] | 100

Same assay, conditions: test compound 200 ppm plus 2 ppm TFNA-AM, after 48 hours

SMILES | mortality % 48, with TFNA-AM [%]
CO/C=C(/C(=O)OC)c1ccccc1Oc1cc(C(F)(F)F)ccn1 [Compound 49] | 90
CO/C=C(/C(=O)OC)c1ccccc1Oc1ncc(C(F)(F)F)s1 [Compound 54] | 100

Same assay, conditions: test compound 200 ppm plus 2 ppm TFNA-AM, knockdown after 1 hour

SMILES | Knock Down, with TFNA-AM [%]
CO/C=C(/C(=O)OC)c1ccccc1Oc1cc(C(F)(F)F)ccn1 [Compound 49] | 100
CO/C=C(/C(=O)OC)c1ccccc1Oc1ncc(C(F)(F)F)s1 [Compound 54] | 100
